# How the values were obtained:
# Dihydrofolate reductase [1] = molecular target: T1, Dihydrofolate reductase (Escherichia coli, UniProt P0ABQ4); test: Inhibition constant for Phe31-dihydrofolate reductase (DHFR)-NADPH-Compound complex
# T1 sequence (P0ABQ4 whole entry): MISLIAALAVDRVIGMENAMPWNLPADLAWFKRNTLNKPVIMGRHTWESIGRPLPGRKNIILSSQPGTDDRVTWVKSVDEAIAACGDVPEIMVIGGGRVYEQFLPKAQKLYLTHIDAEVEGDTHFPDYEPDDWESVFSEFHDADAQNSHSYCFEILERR
# Dihydrofolate reductase [2] = molecular target: T2, Dihydrofolate reductase (Escherichia coli, UniProt P0ABQ4); test: Inhibition constant for Tyr31-dihydrofolate reductase (DHFR)-NADPH-Compound complex
# Dihydrofolate reductase [3] = molecular target: T2, Dihydrofolate reductase; test: Inhibition constant for Val31-dihydrofolate reductase (DHFR)-NADPH-Compound complex
# Dihydrofolate reductase [4] = molecular target: T2, Dihydrofolate reductase; test: Thermodynamic Dissociation Constant for compound-Tyr31-dihydrofolate reductase (DHFR) complex at pH 6
# Dihydrofolate reductase [5] = molecular target: T2, Dihydrofolate reductase; test: Thermodynamic Dissociation Constant for compound-Phe31-dihydrofolate reductase (DHFR) complex at pH 6
# [6] = molecular target: T3, Dihydrofolate reductase (Escherichia coli) (UniProt P0ABQ4)
# T3 sequence (whole entry): T1 sequence (P0ABQ4 whole entry)
# Description: Dissociation constant at(Koff) Tyr-31 of dihydrofolate reductase (DHFR)
# [7] = molecular target: T3, Dihydrofolate reductase (Escherichia coli); remark: listed apart in the source
# Description: Dissociation constant(Koff) at Phe-31 of dihydrofolate reductase (DHFR)
# [8] = molecular target: T3, Dihydrofolate reductase (Escherichia coli); remark: listed apart in the source
# Description: Association constant(Kon) at Tyr-31 of dihydrofolate reductase (DHFR)
# [9] = molecular target: T3, Dihydrofolate reductase (Escherichia coli); remark: listed apart in the source
# Description: Constant at Tyr-31(Kr) of dihydrofolate reductase (DHFR)
# [10] = molecular target: T3, Dihydrofolate reductase (Escherichia coli); remark: listed apart in the source
# Description: Constant, Kr at Phe-31 of dihydrofolate reductase (DHFR)
# Dihydrofolate reductase [11] = molecular target: T2, Dihydrofolate reductase; test: Thermodynamic Dissociation Constant for compound-Tyr31-dihydrofolate reductase (DHFR) complex at pH 8.5
# Dihydrofolate reductase [12] = molecular target: T2, Dihydrofolate reductase; test: Thermodynamic Dissociation Constant for compound-Val31-dihydrofolate reductase (DHFR) complex at pH 7
# Dihydrofolate reductase [13] = molecular target: T2, Dihydrofolate reductase; test: Thermodynamic Dissociation Constant for compound-Val31-dihydrofolate reductase (DHFR) complex at pH 8.5
# Dihydrofolate reductase [14] = molecular target: T2, Dihydrofolate reductase; test: Thermodynamic Dissociation Constant for compound-Phe31-dihydrofolate reductase (DHFR) complex at pH 7
# Dihydrofolate reductase [15] = molecular target: T2, Dihydrofolate reductase; test: Thermodynamic Dissociation Constant for compound-Phe31-dihydrofolate reductase (DHFR) complex at pH 8.5
# Dihydrofolate reductase [16] = molecular target: T2, Dihydrofolate reductase; test: Thermodynamic Dissociation Constant for compound-Tyr31-dihydrofolate reductase (DHFR) complex at pH 7
smiles,measurement,setting,value
Cc1nc2nc(N)nc(N)c2nc1C,Ki,Dihydrofolate reductase [1],44 nM
same,Ki,Dihydrofolate reductase [2],57 nM
same,Ki,Dihydrofolate reductase [3],9100 nM
same,Kd,Dihydrofolate reductase [4],3900 nM
same,Kd,Dihydrofolate reductase [5],1600 nM
same,k off,[6],25 s⁻¹
same,k off,[7],35 s⁻¹
same,k on,[8],6.8e+06 M⁻¹ s⁻¹
same,Kr,[9],25 s⁻¹
same,Kr,[10],24 s⁻¹
NC(=O)c1ccc[n+]([C@H]2O[C@@H](COP(=O)([O-])OP(=O)(O)OC[C@H]3O[C@@H](n4cnc5c(N)ncnc54)[C@H](OP(=O)(O)O)[C@@H]3O)[C@H](O)[C@@H]2O)c1 [NICOTINAMIDE ADENINE DINUCLEOTIDE PHOSPHATE],Kd,Dihydrofolate reductase [11],400 nM
same,Kd,Dihydrofolate reductase [12],220 nM
same,Kd,Dihydrofolate reductase [13],300 nM
same,Kd,Dihydrofolate reductase [14],380 nM
same,Kd,Dihydrofolate reductase [15],490 nM
same,Kd,Dihydrofolate reductase [16],340 nM
Nc1nc2ncc(CNc3ccc(C(=O)N[C@@H](CCC(=O)O)C(=O)O)cc3)nc2c(=O)[nH]1 [FOLIC ACID],Kd,Dihydrofolate reductase [12],4800 nM
same,Kd,Dihydrofolate reductase [14],810 nM
same,Kd,Dihydrofolate reductase [16],4400 nM
